Key:
Parameters in all cases: dosed compound name [14C]Casopitant, route oral
Settings in all cases: in vivo
[1] = Drug level in beagle dog blood assessed as free base level at 40 mg/kg/day, po administered as single dose measured after 24 hrs on day 1; assay type: ADME, organism-based, Canis lupus familiaris
[2] = Drug level in beagle dog blood assessed as free base level at 40 mg/kg/day, po administered as repeat dose measured after 24 hrs on day 14; assay type: ADME, organism-based, Canis lupus familiaris
[3] = Drug level in beagle dog blood assessed as free base level at 40 mg/kg/day, po administered as repeat dose measured after 24 hrs on day 34; assay type: ADME, organism-based, Canis lupus familiaris
[4] = Drug level in beagle dog myocardium assessed as free base level at 40 mg/kg/day, po administered as repeat dose measured after 24 hrs on day 14; assay type: ADME, organism-based, Canis lupus familiaris
[5] = Drug level in beagle dog myocardium assessed as free base level at 40 mg/kg/day, po administered as repeat dose measured after 24 hrs on day 34; assay type: ADME, organism-based, Canis lupus familiaris
[6] = Drug level in beagle dog lung assessed as free base level at 40 mg/kg/day, po administered as repeat dose measured after 24 hrs on day 14; assay type: ADME, organism-based, Canis lupus familiaris
[7] = Drug level in beagle dog lung assessed as free base level at 40 mg/kg/day, po administered as repeat dose measured after 24 hrs on day 34; assay type: ADME, organism-based, Canis lupus familiaris
[8] = Drug level in beagle dog kidney assessed as free base level at 40 mg/kg/day, po administered as repeat dose measured after 24 hrs on day 14; assay type: ADME, organism-based, Canis lupus familiaris
[9] = Drug level in beagle dog kidney assessed as free base level at 40 mg/kg/day, po administered as repeat dose measured after 24 hrs on day 34; assay type: ADME, organism-based, Canis lupus familiaris
Liver [10] = test: Drug level in beagle dog liver assessed as free base level at 40 mg/kg/day, po administered as repeat dose measured after 24 hrs on day 14; assay type: ADME, organism-based, Canis lupus familiaris
Liver [11] = test: Drug level in beagle dog liver assessed as free base level at 40 mg/kg/day, po administered as repeat dose measured after 24 hrs on day 34; assay type: ADME, organism-based, Canis lupus familiaris
[12] = Drug level in beagle dog skeletal muscle assessed as free base level at 40 mg/kg/day, po administered as repeat dose measured after 24 hrs on day 14; assay type: ADME, organism-based, Canis lupus familiaris, Muscle tissue
[13] = Drug level in beagle dog skeletal muscle assessed as free base level at 40 mg/kg/day, po administered as repeat dose measured after 24 hrs on day 34; assay type: ADME, organism-based, Canis lupus familiaris, Muscle tissue
Liver [14] = test: Drug level in Sprague-Dawley rat liver assessed as free base level at 60 mg/kg/day, po administered as repeat dose measured after 24 hrs on day 40; assay type: ADME, organism-based
[15] = Drug level in Sprague-Dawley rat skeletal muscle assessed as free base level at 60 mg/kg/day, po administered as single dose measured after 24 hrs on day 1; assay type: ADME, organism-based, Muscle tissue
[16] = Drug level in Sprague-Dawley rat skeletal muscle assessed as free base level at 60 mg/kg/day, po administered as repeat dose measured after 24 hrs on day 20; assay type: ADME, organism-based, Muscle tissue
[17] = Drug level in Sprague-Dawley rat skeletal muscle assessed as free base level at 60 mg/kg/day, po administered as repeat dose measured after 24 hrs on day 27; assay type: ADME, organism-based, Muscle tissue
[18] = Drug level in Sprague-Dawley rat skeletal muscle assessed as free base level at 60 mg/kg/day, po administered as repeat dose measured after 24 hrs on day 40; assay type: ADME, organism-based, Muscle tissue
Plasma [19] = test: Drug level in beagle dog plasma assessed as free base level at 40 mg/kg/day, po administered as single dose measured after 2 hrs on day 1; assay type: ADME, organism-based, Canis lupus familiaris
Plasma [20] = test: Drug level in beagle dog plasma assessed as free base level at 40 mg/kg/day, po administered as repeat dose measured after 2 hrs on day 14; assay type: ADME, organism-based, Canis lupus familiaris
Plasma [21] = test: Drug level in beagle dog plasma assessed as free base level at 40 mg/kg/day, po administered as single dose measured after 24 hrs on day 1; assay type: ADME, organism-based, Canis lupus familiaris
Plasma [22] = test: Drug level in beagle dog plasma assessed as free base level at 40 mg/kg/day, po administered as repeat dose measured after 24 hrs on day 14; assay type: ADME, organism-based, Canis lupus familiaris
Plasma [23] = test: Drug level in beagle dog plasma assessed as free base level at 40 mg/kg/day, po administered as repeat dose measured after 24 hrs on day 34; assay type: ADME, organism-based, Canis lupus familiaris
[24] = Drug level in beagle dog blood assessed as free base level at 40 mg/kg/day, po administered as single dose measured after 2 hrs on day 1; assay type: ADME, organism-based, Canis lupus familiaris
[25] = Drug level in beagle dog blood assessed as free base level at 40 mg/kg/day, po administered as repeat dose measured after 2 hrs on day 14; assay type: ADME, organism-based, Canis lupus familiaris
Liver [26] = test: Drug level in Sprague-Dawley rat liver assessed as free base level at 60 mg/kg/day, po administered as single dose measured after 24 hrs on day 1; assay type: ADME, organism-based
Kidney [27] = test: Drug level in Sprague-Dawley rat kidney assessed as free base level at 60 mg/kg/day, po administered as repeat dose measured after 24 hrs on day 40; assay type: ADME, organism-based
Kidney [28] = test: Drug level in Sprague-Dawley rat kidney assessed as free base level at 60 mg/kg/day, po administered as repeat dose measured after 24 hrs on day 27; assay type: ADME, organism-based
Kidney [29] = test: Drug level in Sprague-Dawley rat kidney assessed as free base level at 60 mg/kg/day, po administered as repeat dose measured after 24 hrs on day 20; assay type: ADME, organism-based
Kidney [30] = test: Drug level in Sprague-Dawley rat kidney assessed as free base level at 60 mg/kg/day, po administered as single dose measured after 24 hrs on day 1; assay type: ADME, organism-based
Lung [31] = test: Drug level in Sprague-Dawley rat lung assessed as free base level at 60 mg/kg/day, po administered as repeat dose measured after 24 hrs on day 40; assay type: ADME, organism-based
Lung [32] = test: Drug level in Sprague-Dawley rat lung assessed as free base level at 60 mg/kg/day, po administered as repeat dose measured after 24 hrs on day 27; assay type: ADME, organism-based
Lung [33] = test: Drug level in Sprague-Dawley rat lung assessed as free base level at 60 mg/kg/day, po administered as repeat dose measured after 24 hrs on day 20; assay type: ADME, organism-based
Lung [34] = test: Drug level in Sprague-Dawley rat lung assessed as free base level at 60 mg/kg/day, po administered as single dose measured after 24 hrs on day 1; assay type: ADME, organism-based
[35] = Drug level in Sprague-Dawley rat myocardium assessed as free base level at 60 mg/kg/day, po administered as repeat dose measured after 24 hrs on day 40; assay type: ADME, organism-based
[36] = Drug level in Sprague-Dawley rat myocardium assessed as free base level at 60 mg/kg/day, po administered as repeat dose measured after 24 hrs on day 27; assay type: ADME, organism-based
[37] = Drug level in Sprague-Dawley rat myocardium assessed as free base level at 60 mg/kg/day, po administered as repeat dose measured after 24 hrs on day 20; assay type: ADME, organism-based
[38] = Drug level in Sprague-Dawley rat myocardium assessed as free base level at 60 mg/kg/day, po administered as single dose measured after 24 hrs on day 1; assay type: ADME, organism-based
Blood [39] = test: Drug level in Sprague-Dawley rat blood assessed as free base level at 60 mg/kg/day, po administered as repeat dose measured after 24 hrs on day 40; assay type: ADME, organism-based
Blood [40] = test: Drug level in Sprague-Dawley rat blood assessed as free base level at 60 mg/kg/day, po administered as repeat dose measured after 24 hrs on day 27; assay type: ADME, organism-based
Blood [41] = test: Drug level in Sprague-Dawley rat blood assessed as free base level at 60 mg/kg/day, po administered as repeat dose measured after 24 hrs on day 20; assay type: ADME, organism-based
Blood [42] = test: Drug level in Sprague-Dawley rat blood assessed as free base level at 60 mg/kg/day, po administered as single dose measured after 24 hrs on day 1; assay type: ADME, organism-based
Liver [43] = test: Drug level in Sprague-Dawley rat liver assessed as free base level at 60 mg/kg/day, po administered as repeat dose measured after 24 hrs on day 20; assay type: ADME, organism-based
Plasma [44] = test: Drug level in Sprague-Dawley rat plasma assessed as free base level at 60 mg/kg/day, po administered as single dose measured after 2 hrs on day 1; assay type: ADME, organism-based
Plasma [45] = test: Drug level in Sprague-Dawley rat plasma assessed as free base level at 60 mg/kg/day, po administered as single dose measured after 2 hrs on day 20; assay type: ADME, organism-based
Plasma [46] = test: Drug level in Sprague-Dawley rat plasma assessed as free base level at 60 mg/kg/day, po administered as repeat dose measured after 24 hrs on day 40; assay type: ADME, organism-based
Plasma [47] = test: Drug level in Sprague-Dawley rat plasma assessed as free base level at 60 mg/kg/day, po administered as repeat dose measured after 24 hrs on day 27; assay type: ADME, organism-based
Plasma [48] = test: Drug level in Sprague-Dawley rat plasma assessed as free base level at 60 mg/kg/day, po administered as repeat dose measured after 24 hrs on day 20; assay type: ADME, organism-based
Plasma [49] = test: Drug level in Sprague-Dawley rat plasma assessed as free base level at 60 mg/kg/day, po administered as single dose measured after 24 hrs on day 1; assay type: ADME, organism-based
Liver [50] = test: Drug level in Sprague-Dawley rat liver assessed as free base level at 60 mg/kg/day, po administered as repeat dose measured after 24 hrs on day 27; assay type: ADME, organism-based

CC(=O)N1CCN([C@H]2CCN([14C](=O)N(C)[C@H](C)c3cc(C(F)(F)F)cc(C(F)(F)F)c3)[C@@H](c3ccc(F)cc3C)C2)CC1.CS(=O)(=O)O
Radiolabel recovery [1]: 9.4 ugequiv/g
Radiolabel recovery [2]: 35.3 ugequiv/g
Radiolabel recovery [3]: 9.95 ugequiv/g
Radiolabel recovery [4]: 243 ugequiv/g
Radiolabel recovery [5]: 96.2 ugequiv/g
Radiolabel recovery [6]: 905 ugequiv/g
Radiolabel recovery [7]: 345 ugequiv/g
Radiolabel recovery [8]: 308 ugequiv/g
Radiolabel recovery [9]: 102 ugequiv/g
Radiolabel recovery (Liver [10]): 1050 ugequiv/g
Radiolabel recovery (Liver [11]): 612 ugequiv/g
Radiolabel recovery [12]: 99.2 ugequiv/g
Radiolabel recovery [13]: 21.3 ugequiv/g
Radiolabel recovery (Liver [14]): 90.4 ugequiv/g
Radiolabel recovery [15]: 18.3 ugequiv/g
Radiolabel recovery [16]: 28.1 ugequiv/g
Radiolabel recovery [17]: 10.7 ugequiv/g
Radiolabel recovery [18]: 7.74 ugequiv/g
Radiolabel recovery (Plasma [19]): 20.8 ugequiv/g
Radiolabel recovery (Plasma [20]): 69.5 ugequiv/g
Radiolabel recovery (Plasma [21]): 9.68 ugequiv/g
Radiolabel recovery (Plasma [22]): 49.2 ugequiv/g
Radiolabel recovery (Plasma [23]): 11.6 ugequiv/g
Radiolabel recovery [24]: 11.3 ugequiv/g
Radiolabel recovery [25]: 47.4 ugequiv/g
Radiolabel recovery (Liver [26]): 121 ugequiv/g
Radiolabel recovery (Kidney [27]): 39.2 ugequiv/g
Radiolabel recovery (Kidney [28]): 64.6 ugequiv/g
Radiolabel recovery (Kidney [29]): 256 ugequiv/g
Radiolabel recovery (Kidney [30]): 59.1 ugequiv/g
Radiolabel recovery (Lung [31]): 96.8 ugequiv/g
Radiolabel recovery (Lung [32]): 136 ugequiv/g
Radiolabel recovery (Lung [33]): 405 ugequiv/g
Radiolabel recovery (Lung [34]): 135 ugequiv/g
Radiolabel recovery [35]: 26.7 ugequiv/g
Radiolabel recovery [36]: 32.9 ugequiv/g
Radiolabel recovery [37]: 79.6 ugequiv/g
Radiolabel recovery [38]: 34.6 ugequiv/g
Radiolabel recovery (Blood [39]): 3.63 ugequiv/g
Radiolabel recovery (Blood [40]): 7.67 ugequiv/g
Radiolabel recovery (Blood [41]): 14.5 ugequiv/g
Radiolabel recovery (Blood [42]): 5.6 ugequiv/g
Radiolabel recovery (Liver [43]): 545 ugequiv/g
Radiolabel recovery (Plasma [44]): 6.06 ugequiv/g
Radiolabel recovery (Plasma [45]): 18.5 ugequiv/g
Radiolabel recovery (Plasma [46]): 0.246 ugequiv/g
Radiolabel recovery (Plasma [47]): 1.92 ugequiv/g
Radiolabel recovery (Plasma [48]): 12.4 ugequiv/g
Radiolabel recovery (Plasma [49]): 5.54 ugequiv/g
Radiolabel recovery (Liver [50]): 240 ugequiv/g

From ChEMBL document CHEMBL3526147, “Tissue distribution and characterization of drug-related material in rats and dogs after repeated oral administration of casopitant” (Drug Metab Dispos, 2011)
